Data: ChEMBL document CHEMBL4422615, “Novel non-xanthine antagonist of the A2B adenosine receptor: From HTS hit to lead structure” (Eur J Med Chem, 2019)
Values after ≈ are worked out from the molar mass of the structure shown. Active and inactive are the calls of the source. No cut-off for these calls is given here.

Experiments:
[1] = Half life in rat at 0.3 mg/kg, iv administered as infusion for 15 mins by HPLC-MS/MS analysis; type: ADME, organism-based; conditions: in vivo
[2] = target: T1, Adenosine receptor A3 (Homo sapiens, UniProt P0DMS8); assay: Displacement of [125I]AB-MECA from human A3 adenosine receptor expressed in HEK293 cell membranes after 120 mins by radioligand displacement assay
T1 sequence (P0DMS8 whole entry): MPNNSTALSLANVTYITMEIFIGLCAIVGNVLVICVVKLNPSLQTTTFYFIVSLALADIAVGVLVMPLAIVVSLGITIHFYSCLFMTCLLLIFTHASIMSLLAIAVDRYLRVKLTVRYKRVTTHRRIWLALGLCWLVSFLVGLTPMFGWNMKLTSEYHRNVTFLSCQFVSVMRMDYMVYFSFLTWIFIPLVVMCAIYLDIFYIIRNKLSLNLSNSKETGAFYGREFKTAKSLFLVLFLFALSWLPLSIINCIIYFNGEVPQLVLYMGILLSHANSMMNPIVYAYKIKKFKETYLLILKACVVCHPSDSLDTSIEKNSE

[3] = Oral bioavailability in dog at 1 mg/kg for 15 mins by HPLC-MS/MS analysis; type: ADME, organism-based, Canis lupus familiaris; conditions: in vivo
[4] = Oral bioavailability in rat at 1 mg/kg for 15 mins by HPLC-MS/MS analysis; type: ADME, organism-based; conditions: in vivo
[5] = Aqueous solubility of the compound in phosphate buffer at pH 6.5 after 24 hrs by LC/MS/MS analysis; type: physicochemical
[6] = Dose normalized AUC in mouse at 1 mg/kg, iv administered as bolus dose by HPLC-MS/MS analysis; type: ADME, organism-based; conditions: in vivo
[7] = target: Adenosine receptor A2a (Homo sapiens, UniProt P29274); assay: Antagonist activity at recombinant human A2A adenosine receptor expressed in CHO cells after 3 to 4 hrs by luciferase reporter gene assay; type: cell-based
[8] = test system: Mus musculus; assay: Antifibrotic activity in silica-induced C57BL/6J mouse pulmonary fibrosis model assessed as reduction in total number of cells in BALF at 100 to 500 mg/kg, bid administered via gavage treated from day 1 until day 7 after silica application; type: functional, organism-based
[9] = MRT in mouse at 1 mg/kg, iv administered as bolus dose by HPLC-MS/MS analysis; type: ADME, organism-based; conditions: in vivo
[10] = Blood clearance in rat by measuring Intrinsic clearance in rat hepatocytes by MS/MS analysis; type: ADME, cell-based
[11] = target: T2, Cytochrome P450 2C8 (Homo sapiens, UniProt P10632); assay: Inhibition of CYP2C8 in human liver microsomes using amodiaquine as substrate after 15 mins in presence of NADPH by LC-MS/MS analysis; type: ADME
T2 sequence (P10632 whole entry): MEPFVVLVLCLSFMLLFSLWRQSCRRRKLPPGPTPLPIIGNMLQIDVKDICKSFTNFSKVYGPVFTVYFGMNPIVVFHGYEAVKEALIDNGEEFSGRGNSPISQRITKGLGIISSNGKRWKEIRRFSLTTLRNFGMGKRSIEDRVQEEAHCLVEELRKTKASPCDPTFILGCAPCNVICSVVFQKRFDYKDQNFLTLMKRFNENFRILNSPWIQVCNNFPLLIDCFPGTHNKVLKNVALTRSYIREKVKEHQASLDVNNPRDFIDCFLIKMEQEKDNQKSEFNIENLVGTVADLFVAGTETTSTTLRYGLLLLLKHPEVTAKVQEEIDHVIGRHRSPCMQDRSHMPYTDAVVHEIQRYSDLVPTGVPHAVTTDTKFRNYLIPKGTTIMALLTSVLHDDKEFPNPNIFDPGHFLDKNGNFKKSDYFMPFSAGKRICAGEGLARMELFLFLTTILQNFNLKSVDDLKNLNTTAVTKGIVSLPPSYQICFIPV

[12] = target: Cytochrome P450 2D6 (Homo sapiens, UniProt P10635); assay: Inhibition of CYP2D6 in human liver microsomes using dextromethorphan as substrate after 15 mins in presence of NADPH by LC-MS/MS analysis; type: ADME
[13] = Anti-inflammatory activity in human LL29 cells assessed as reduction in NECA-induced IL6 level after 24 hrs by ELISA; type: functional, cell-based
[14] = Half life in mouse at 0.3 mg/kg, iv administered as bolus dose by HPLC-MS/MS analysis; type: ADME, organism-based; conditions: in vivo
[15] = Apparent permeability from apical side to basolateral side in human Caco2 cells; type: ADME, cell-based; conditions: Caco-2
[16] = target: Cytochrome P450 3A4 (Homo sapiens, UniProt P08684); assay: Inhibition of CYP3A4 in human liver microsomes using midazolam as substrate preincubated for 30 mins followed by substrate addition measured after 10 mins in presence of NADPH by LC-MS/MS analysis; type: ADME
[17] = Blood clearance in human by measuring intrinsic clearance in human liver microsomes by MS/MS analysis; type: ADME
[18] = test system: Mus musculus; assay: Antifibrotic activity in silica-induced C57BL/6J mouse pulmonary fibrosis model assessed as reduction in lung weight at 100 to 500 mg/kg, bid administered via gavage treated from day 1 until day 7 after silica application; type: functional, organism-based
[19] = Efflux ratio in human Caco2 cells; type: ADME, cell-based; conditions: Caco-2
[20] = test system: Mus musculus; assay: Antifibrotic activity in FITC-induced C57BL/6J mouse pulmonary fibrosis model assessed as reduction in lung weight at 100 to 500 mg/kg, bid administered via gavage pretreated for 45 mins before FITC addition until 72 hrs after FITC application; type: functional, organism-based
[21] = test system: Mus musculus; assay: Antifibrotic activity in FITC-induced C57BL/6J mouse pulmonary fibrosis model assessed as reduction in osteopontin level in BALF at 100 to 500 mg/kg, bid administered via gavage pretreated for 45 mins before FITC addition until 72 hrs after FITC application by ELISA; type: functional, organism-based
[22] = target: T3, PXR (Homo sapiens, UniProt O75469); assay: Activation of PXR in human HepG2 cells assessed as induction of CYP3A4 expression at 2 x 10^-9 to 50 x 10^-6 mol/L by luciferase reporter gene assay relative to control; type: ADME, cell-based
T3 sequence (O75469 whole entry): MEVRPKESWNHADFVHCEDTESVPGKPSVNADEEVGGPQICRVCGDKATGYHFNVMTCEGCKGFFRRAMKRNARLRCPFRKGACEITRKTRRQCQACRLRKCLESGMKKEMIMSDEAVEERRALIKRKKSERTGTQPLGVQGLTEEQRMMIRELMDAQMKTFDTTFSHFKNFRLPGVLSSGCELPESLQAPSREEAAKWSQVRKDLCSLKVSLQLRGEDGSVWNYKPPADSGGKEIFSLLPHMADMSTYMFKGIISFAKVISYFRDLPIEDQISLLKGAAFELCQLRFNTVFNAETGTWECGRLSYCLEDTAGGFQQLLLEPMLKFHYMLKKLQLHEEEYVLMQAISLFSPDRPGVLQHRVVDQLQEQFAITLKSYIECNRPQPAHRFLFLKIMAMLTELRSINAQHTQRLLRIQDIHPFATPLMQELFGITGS

[23] = Half life in dog at 0.3 mg/kg, iv administered as infusion for 15 mins by HPLC-MS/MS analysis; type: ADME, organism-based, Canis lupus familiaris; conditions: in vivo
[24] = MRT in mouse at 0.3 mg/kg, iv administered as bolus dose by HPLC-MS/MS analysis; type: ADME, organism-based; conditions: in vivo
[25] = Dose normalized AUC in rat at 1 mg/kg, po for 15 mins by HPLC-MS/MS analysis; type: ADME, organism-based; conditions: in vivo, 0.25 h

Cytochrome P450 3A4, sequence (P08684 whole entry): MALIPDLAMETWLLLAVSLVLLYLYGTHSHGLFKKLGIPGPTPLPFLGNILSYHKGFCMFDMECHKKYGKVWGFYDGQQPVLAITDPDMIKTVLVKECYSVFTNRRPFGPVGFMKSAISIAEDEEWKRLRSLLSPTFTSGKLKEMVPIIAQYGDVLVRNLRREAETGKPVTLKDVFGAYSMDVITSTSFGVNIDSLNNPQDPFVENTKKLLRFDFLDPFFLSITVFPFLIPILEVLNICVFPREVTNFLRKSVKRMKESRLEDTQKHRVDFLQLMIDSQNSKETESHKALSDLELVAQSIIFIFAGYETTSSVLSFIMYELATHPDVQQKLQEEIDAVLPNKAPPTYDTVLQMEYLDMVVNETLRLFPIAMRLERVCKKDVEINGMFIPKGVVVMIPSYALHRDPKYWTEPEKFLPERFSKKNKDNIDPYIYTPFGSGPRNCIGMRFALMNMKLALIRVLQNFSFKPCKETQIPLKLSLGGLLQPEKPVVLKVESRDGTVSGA
Cytochrome P450 2D6, sequence (P10635 whole entry): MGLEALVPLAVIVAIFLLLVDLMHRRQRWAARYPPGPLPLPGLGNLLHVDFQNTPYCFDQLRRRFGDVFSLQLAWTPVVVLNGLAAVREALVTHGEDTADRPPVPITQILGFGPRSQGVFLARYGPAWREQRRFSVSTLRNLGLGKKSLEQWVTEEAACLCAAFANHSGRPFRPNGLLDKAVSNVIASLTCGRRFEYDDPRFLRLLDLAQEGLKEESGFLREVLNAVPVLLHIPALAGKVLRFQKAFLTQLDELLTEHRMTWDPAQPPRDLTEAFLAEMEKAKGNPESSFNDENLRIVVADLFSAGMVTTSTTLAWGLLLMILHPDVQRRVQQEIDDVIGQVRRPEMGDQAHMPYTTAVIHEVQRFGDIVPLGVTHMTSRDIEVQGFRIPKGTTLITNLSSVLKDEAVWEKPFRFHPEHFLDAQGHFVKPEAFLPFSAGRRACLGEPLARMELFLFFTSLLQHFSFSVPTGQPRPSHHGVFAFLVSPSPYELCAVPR
Adenosine receptor A2a, sequence (P29274 whole entry): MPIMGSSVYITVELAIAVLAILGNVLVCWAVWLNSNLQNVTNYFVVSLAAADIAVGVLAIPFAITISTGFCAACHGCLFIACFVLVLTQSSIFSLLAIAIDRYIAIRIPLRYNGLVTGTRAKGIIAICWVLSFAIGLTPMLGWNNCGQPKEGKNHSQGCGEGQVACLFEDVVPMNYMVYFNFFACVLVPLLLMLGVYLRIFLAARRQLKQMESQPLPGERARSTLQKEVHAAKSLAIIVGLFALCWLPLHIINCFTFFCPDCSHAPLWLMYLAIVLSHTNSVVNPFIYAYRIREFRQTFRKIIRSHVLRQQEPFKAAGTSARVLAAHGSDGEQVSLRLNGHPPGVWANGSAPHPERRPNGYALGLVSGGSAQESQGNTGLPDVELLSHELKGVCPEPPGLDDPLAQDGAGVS

CCn1c(=O)c2c(C)c(C(=O)N3CCC(O)CC3)sc2n(CCC(F)(F)F)c1=O
half-life [1]: 1.4 h
Ki [2]: > 10 µM
bioavailability [3]: 79%
bioavailability [4]: 88%
solubility at 24 h [5]: 410 µg/mL (≈ 946 µM)
AUC/dose [6]: 1 kg·h/L
IC50 [7]: 0.82 µM
Activity [8]: inactive
MRT [9]: 1.2 h
CLhep predicted [10]: 23.3 mL/min/kg
IC50 [11]: > 20 µM
IC50 [12]: > 20 µM
IC50 [13]: 0.185 µM
half-life [14]: 1.2 h
Papp A→B [15]: 48 ×10⁻⁶ cm/s
IC50 [16]: > 20 µM
CLhep predicted [17]: 3.67 mL/min/kg
Activity [18]: Active
efflux ratio [19]: 0.82
Activity [20]: Active
Activity [21]: Active
Emax [22]: 16%
half-life [23]: 6.6 h
MRT [24]: 0.65 h
AUC/dose [25]: 0.78 kg·h/L
